Measured values published in PubChem BioAssay (NCI).
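These data come from cells grown in 96-well plates and exposed to compound for 48 hours at five concentrations. GI50 marks 50% less growth. The concentration for full growth arrest is given as TGI.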

What was measured:
Assay in all cases: NCI anticancer screen, dose series, 48 h
SK-MEL-28 melanoma = test system: SK-MEL-28 melanoma
RXF 393 renal = test system: RXF 393 renal
KM12 colon = test system: KM12 colon
RPMI-8226 leukemia = test system: RPMI-8226 leukemia
IGROV1 ovarian = test system: IGROV1 ovarian
SNB-75 CNS = test system: SNB-75 CNS
MDA-MB-435 = test system: MDA-MB-435
NCI-H226 lung = test system: NCI-H226 lung
K-562 leukemia = test system: K-562 leukemia
MCF7 breast = test system: MCF7 breast
HCT-15 colon = test system: HCT-15 colon
COLO 205 colon = test system: COLO 205 colon
SK-MEL-2 melanoma = test system: SK-MEL-2 melanoma
SF-268 CNS = test system: SF-268 CNS
HCT-116 colon = test system: HCT-116 colon
OVCAR-5 ovarian = test system: OVCAR-5 ovarian
OVCAR-4 ovarian = test system: OVCAR-4 ovarian
786-0 renal = test system: 786-0 renal
CAKI-1 renal = test system: CAKI-1 renal
HT29 colon = test system: HT29 colon
OVCAR-3 ovarian = test system: OVCAR-3 ovarian
TK-10 renal = test system: TK-10 renal
HL-60(TB) leukemia = test system: HL-60(TB) leukemia
M14 melanoma = test system: M14 melanoma
SN12C renal = test system: SN12C renal
UO-31 renal = test system: UO-31 renal
NCI-H460 lung = test system: NCI-H460 lung
ACHN renal = test system: ACHN renal
A498 renal = test system: A498 renal

Question: Which TGI (SK-MEL-28 melanoma) does the source give for `Fc1ccc2nc(-c3cc(-c4ccc5c(c4)OCO5)n[nH]3)[nH]c2c1` here?
Answer: 53.2 µM

Question: And the GI50 (RXF 393 renal)?
Answer: 2.81 µM

Question: And the TGI (RXF 393 renal)?
Answer: 32.1 µM

Question: And the GI50 (KM12 colon)?
Answer: 2.49 µM

Question: And the TGI (KM12 colon)?
Answer: > 32 µM

Question: What about the GI50 (RPMI-8226 leukemia) of the same compound?
Answer: 1.17 µM

Question: What about the TGI (RPMI-8226 leukemia) of the same compound?
Answer: 8.26 µM

Question: And the GI50 (IGROV1 ovarian)?
Answer: 3.79 µM

Question: And the TGI (IGROV1 ovarian)?
Answer: > 100 µM

Question: What about the GI50 (SNB-75 CNS) of the same compound?
Answer: 2.8 µM

Question: What about the TGI (SNB-75 CNS) of the same compound?
Answer: 13.8 µM

Question: What about the GI50 (MDA-MB-435) of the same compound?
Answer: 4.49 µM

Question: And the TGI (MDA-MB-435)?
Answer: > 71.7 µM

Question: And the GI50 (NCI-H226 lung)?
Answer: 3.92 µM

Question: And the TGI (NCI-H226 lung)?
Answer: 40.5 µM

Question: What about the GI50 (K-562 leukemia) of the same compound?
Answer: 4.35 µM

Question: What about the TGI (K-562 leukemia) of the same compound?
Answer: > 100 µM

Question: And the GI50 (MCF7 breast)?
Answer: 3.84 µM

Question: And the TGI (MCF7 breast)?
Answer: > 100 µM

Question: What about the GI50 (HCT-15 colon) of the same compound?
Answer: 3.27 µM

Question: What about the TGI (HCT-15 colon) of the same compound?
Answer: > 42.4 µM

Question: And the GI50 (COLO 205 colon)?
Answer: 9.22 µM

Question: And the TGI (COLO 205 colon)?
Answer: > 66.1 µM

Question: What about the GI50 (SK-MEL-2 melanoma) of the same compound?
Answer: 2.87 µM

Question: And the TGI (SK-MEL-2 melanoma)?
Answer: 17.1 µM

Question: What about the GI50 (SF-268 CNS) of the same compound?
Answer: 5.22 µM

Question: And the TGI (SF-268 CNS)?
Answer: > 54.9 µM

Question: What about the GI50 (HCT-116 colon) of the same compound?
Answer: 3.51 µM

Question: And the TGI (HCT-116 colon)?
Answer: > 32.5 µM

Question: And the GI50 (OVCAR-5 ovarian)?
Answer: 35.5 µM

Question: What about the TGI (OVCAR-5 ovarian) of the same compound?
Answer: > 100 µM

Question: And the GI50 (OVCAR-4 ovarian)?
Answer: 1.37 µM

Question: And the TGI (OVCAR-4 ovarian)?
Answer: 4.8 µM

Question: What about the GI50 (786-0 renal) of the same compound?
Answer: 5.89 µM

Question: What about the TGI (786-0 renal) of the same compound?
Answer: > 80 µM

Question: And the GI50 (CAKI-1 renal)?
Answer: 2.44 µM

Question: What about the TGI (CAKI-1 renal) of the same compound?
Answer: > 55.7 µM

Question: What about the GI50 (HT29 colon) of the same compound?
Answer: 5.06 µM

Question: What about the TGI (HT29 colon) of the same compound?
Answer: > 37.8 µM

Question: And the GI50 (OVCAR-3 ovarian)?
Answer: 3.29 µM

Question: And the TGI (OVCAR-3 ovarian)?
Answer: 18.3 µM

Question: And the GI50 (TK-10 renal)?
Answer: 7.3 µM

Question: And the TGI (TK-10 renal)?
Answer: > 45.1 µM

Question: What about the GI50 (HL-60(TB) leukemia) of the same compound?
Answer: 3.09 µM

Question: What about the TGI (HL-60(TB) leukemia) of the same compound?
Answer: 55.5 µM

Question: And the GI50 (M14 melanoma)?
Answer: 2.78 µM

Question: And the TGI (M14 melanoma)?
Answer: > 32.5 µM

Question: What about the GI50 (SN12C renal) of the same compound?
Answer: 4.59 µM

Question: What about the TGI (SN12C renal) of the same compound?
Answer: > 100 µM

Question: What about the GI50 (UO-31 renal) of the same compound?
Answer: 2.5 µM

Question: What about the TGI (UO-31 renal) of the same compound?
Answer: > 24 µM

Question: And the GI50 (NCI-H460 lung)?
Answer: 4.22 µM

Question: What about the TGI (NCI-H460 lung) of the same compound?
Answer: > 40.2 µM

Question: What about the GI50 (ACHN renal) of the same compound?
Answer: 2.74 µM

Question: What about the TGI (ACHN renal) of the same compound?
Answer: > 25.4 µM

Question: What about the GI50 (A498 renal) of the same compound?
Answer: 3.27 µM

Question: And the TGI (A498 renal)?
Answer: > 100 µM
